According to PubChem BioAssay (NCI):
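Following 48 hours of exposure in 96-well plates, responses at five concentrations were used to interpolate endpoints linearly. GI50: concentration for 50% inhibition of growth. TGI is the concentration that stops growth completely.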

Columns and labels:
Experiment in all cases: DTP human tumour cell line panel, 48 h; in the data active = GI50 below about 0.43 µM; inactive = the rest
UACC-257 melanoma = system: UACC-257 melanoma
HCT-116 colon = system: HCT-116 colon
T-47D breast = system: T-47D breast
ACHN renal = system: ACHN renal
HCC-2998 colon = system: HCC-2998 colon
DU-145 prostate = system: DU-145 prostate
UO-31 renal = system: UO-31 renal
HT29 colon = system: HT29 colon
NCI-H226 lung = system: NCI-H226 lung
MOLT-4 leukemia = system: MOLT-4 leukemia

Cc1nn(-c2nc3ccccc3[nH]2)c(N)c1-c1ccc(Cl)cc1
67.8 µM: TGI (HT29 colon)
inactive: GI50 (UACC-257 melanoma) 2.63 µM | GI50 (HCT-116 colon) 4.37 µM | GI50 (T-47D breast) 3.42 µM | GI50 (ACHN renal) 4.6 µM | GI50 (HCC-2998 colon) 5.12 µM | GI50 (DU-145 prostate) 6.86 µM | GI50 (UO-31 renal) 3.79 µM | GI50 (HT29 colon) 4.35 µM | GI50 (NCI-H226 lung) 8.66 µM | GI50 (MOLT-4 leukemia) 3.54 µM
> 100 µM: TGI (HCT-116 colon) | TGI (T-47D breast) | TGI (ACHN renal) | TGI (HCC-2998 colon) | TGI (DU-145 prostate) | TGI (UO-31 renal) | TGI (NCI-H226 lung) | TGI (MOLT-4 leukemia)
55.8 µM: TGI (UACC-257 melanoma)
